Laboratory results reported in ChEMBL document CHEMBL3091293, “The synthesis and biodistribution of [(11)C]metformin as a PET probe to study hepatobiliary transport mediated by the multi-drug and toxin extrusion transporter 1 (MATE1) in vivo” (Bioorg Med Chem, 2013).

Columns and labels:
Assay type in all cases: ADME, organism-based; call rule not given here
[1] = system: Liver; test: Drug uptake in liver of ddY mouse at 127 +/- 35 MBq/kg, iv after 2 mins by microPET image analysis; conditions: in vivo
[2] = system: Mus musculus; test: Biodistribution in stomach wall of ddY mouse at 5.6 +/- 2.1 MBq, iv measured per gram of tissue at 45 mins by gamma-ray counting analysis; conditions: in vivo, 0.75 h
[3] = system: Kidney; test: Drug uptake in kidney of ddY mouse at 127 +/- 35 MBq/kg, iv measured up to 4.5 mins by microPET image analysis in presence of MATE1 inhibitor pyrimethamine; conditions: in vivo, 0.075 h
[4] = system: Liver; test: Biodistribution in liver of ddY mouse at 5.6 +/- 2.1 MBq, iv measured per gram of tissue at 60 mins by gamma-ray counting analysis; conditions: in vivo, 1 h
[5] = system: Mus musculus; test: Biodistribution in large intestine wall of ddY mouse at 5.6 +/- 2.1 MBq, iv measured per gram of tissue at 15 mins by gamma-ray counting analysis; conditions: in vivo, 0.25 h
[6] = system: Kidney; test: Biodistribution in kidney of ddY mouse at 5.6 +/- 2.1 MBq, iv measured per gram of tissue at 45 mins by gamma-ray counting analysis; conditions: in vivo, 0.75 h
[7] = system: Thyroid gland; test: Biodistribution in thyroid of ddY mouse at 5.6 +/- 2.1 MBq, iv measured per gram of tissue at 60 mins by gamma-ray counting analysis; conditions: in vivo, 1 h
[8] = system: Mus musculus; test: Biodistribution in large intestine wall of ddY mouse at 5.6 +/- 2.1 MBq, iv measured per gram of tissue at 90 mins by gamma-ray counting analysis; conditions: in vivo, 1.5 h
[9] = system: Blood; test: Metabolic stability in blood of mouse at 5 +/- 2.3 MBq/kg, iv measured until 30 to 60 mins by HPLC analysis in presence of MATE1 inhibitor pyrimethamine; conditions: in vivo
[10] = system: Liver; test: Biodistribution in liver of ddY mouse at 5.6 +/- 2.1 MBq, iv measured per gram of tissue at 15 mins by gamma-ray counting analysis; conditions: in vivo, 0.25 h
[11] = system: Spleen; test: Biodistribution in spleen of ddY mouse at 5.6 +/- 2.1 MBq, iv measured per gram of tissue at 30 mins by gamma-ray counting analysis; conditions: in vivo, 0.5 h
[12] = system: Mus musculus; test: Biodistribution in urinary bladder/urine of ddY mouse at 5.6 +/- 2.1 MBq, iv measured per gram of tissue at 15 mins by gamma-ray counting analysis; conditions: in vivo, 0.25 h
[13] = system: Mus musculus; test: Biodistribution in small intestine wall of ddY mouse at 5.6 +/- 2.1 MBq, iv measured per gram of tissue at 60 mins by gamma-ray counting analysis; conditions: in vivo, 1 h
[14] = system: Kidney; test: Biodistribution in kidney of ddY mouse at 5.6 +/- 2.1 MBq, iv measured per gram of tissue at 35 mins by gamma-ray counting analysis; conditions: in vivo
[15] = system: Thyroid gland; test: Biodistribution in thyroid of ddY mouse at 5.6 +/- 2.1 MBq, iv measured per gram of tissue at 15 mins by gamma-ray counting analysis; conditions: in vivo, 0.25 h
[16] = system: Mus musculus; test: Biodistribution in urinary bladder/urine of ddY mouse at 5.6 +/- 2.1 MBq, iv measured per gram of tissue at 30 mins by gamma-ray counting analysis; conditions: in vivo, 0.5 h
[17] = system: Mus musculus; test: Biodistribution in urinary bladder/urine of ddY mouse at 5.6 +/- 2.1 MBq, iv measured per gram of tissue at 45 mins by gamma-ray counting analysis; conditions: in vivo, 0.75 h
[18] = system: Mus musculus; test: Biodistribution in large intestine wall of ddY mouse at 5.6 +/- 2.1 MBq, iv measured per gram of tissue at 35 mins by gamma-ray counting analysis; conditions: in vivo

## CN([11CH3])C(=N)NC(=N)N
[1]
  Drug uptake: Not Active
[2]
  Drug uptake: 0.08 %ID
[3]
  Drug uptake: Active
[4]
  Drug uptake: 1.631 %ID
[5]
  Drug uptake: 0.659 %ID
[6]
  Drug uptake: 0.165 %ID
[7]
  Drug uptake: 0.005 %ID
[8]
  Drug uptake: 0.24 %ID
[9]
  Stability: Stable
[10]
  Drug uptake: 3.817 %ID
[11]
  Drug uptake: 0.162 %ID
[12]
  Drug uptake: 35.204 %ID
[13]
  Drug uptake: 2.543 %ID
[14]
  Drug uptake: 0.274 %ID
[15]
  Drug uptake: 0.008 %ID
[16]
  Drug uptake: 73.314 %ID
[17]
  Drug uptake: 78.906 %ID
[18]
  Drug uptake: 0.342 %ID
